Source: patent publication US10766940B2, “Brain penetrant amylin receptor based peptides for Alzheimer's disease” (The Governors of the University of Alberta, priority 2016, dated 2020)
Residues, ends and D or L forms follow the SMILES beside them. No end group written: not given here.

Tests used:
[1] = tested on: h-Amylin depression of hippocampal LTP; assay: Hippocampal slice electrophysiology, long-term potentiation (LTP); set-up: species or system mouse; details: for reversal of h-Amylin reduction in LTP: 250 nM peptide perfused 5 min prior to 50 nM h-Amylin; for effect of peptide alone on LTP: 250 nM, mouse hippocampal slice
Method: Brains were quickly removed from mice following decapitation, placed in a cold artificial cerebral spinal fluid (aCSF) on a vibratome chamber, and transverse sections cut through the hippocampus. The aCSF contained (in millimolar 124 NaCl, 3 KCl, 2.4 CaCl2, 2 MgCl2, 1.25 NaH2PO4, 26 NaHCO3, and 10 D-glucose and was equilibrated with 95% 02 and 5% CO2. Hippocampal slices (400-μm thick) were maintained in aCSF-filled holding chamber at room temperature for at least 1 h and individually transferred to the submerged glass bottom recording chamber, which was constantly perfused with aCSF (2 ml/min) at 30° C. Field excitatory postsynaptic potential (fEPSP) was recorded with a metallic (Pt/Ir) electrode (FHC, Bowdoin, Me.) from the stratum radiatum layer of Cornu ammonis 1 region of the hippocampus (CA1) area, and the Schaffer collateral afferents were stimulated with 100-μs test pulses via a bipolar cluster electrode (FHC). For long-term potentiation (LTP) experiments, the stimulus strength was set to elicit 40-50% of the maximum fEPSP amplitude and test pulses were delivered to Schaffer collaterals once every 30 s. LTP was induced by 3-theta-burst stimulation (3-TBS) protocol (each burst consisted of four pulses at 100 Hz with a 200-ms interburst interval). Before 3-TBS or drug application, the responses were monitored for at least 10 min to ensure a stable baseline of fEPSP.
Soluble oligomeric Aβ1-42, Fragments R5, R10, R11 and h-Amylin were used. Aβ1-42 was purchased from rPeptide, and h-Amylin were purchased from American Peptide. All drugs and chemicals were applied directly to the slice via bath perfusion, which allowed for a complete exchange of the perfusate in less than a minute and a half.

[2] = tested on: human neuroblastoma, SK-N-SH cells; assay: Aβ1-42 cytotoxicity (MTT) in SK-N-SH cells; format: cell-based; details: Aβ1-42 20 μM
Method: f) To investigate the antagonistic activity of peptide fragments against Aβ cytotoxicity in vitro, (human fetal neurons) HFNs, human neuroblastoma, SK-N-SH cells and N2a mouse neuroblastoma cells were used. Cells were seeded to 5000 cells/well in a 96-well plate in MEM-10% FBS and DMEM/OptiMEM-5% FBS for overnight. Cells in culture media were preincubated for 8 h with or without AC253 or fragments R5, R14, R11, and followed by treatment with Aβ1-42 for 24 h. At the end of treatment, 20 μl of 5 mg/ml methylthiazolyldiphenyl-tetrazolium bromide (MTT) was added to each well, and incubated at 37° C. for 3 h. Medium was removed, 100 μl of MTT solvent (isopropanol with 4 mM HCl) added to each well, and the plates were incubated for 30 min at room temperature on a rotating shaker. Plates were analyzed on a microplate reader at a 562-nm wavelength.

[3] = target: T1, AMY3 receptor (CTR+RAMP3), HEK293-AMY3 cells (Homo sapiens, UniProt O60896+P30988); assay: Peptide array-cell binding assay, AMY3 cells; details: membrane-bound peptides, GFP cells
T1 construct: expressed in transfected cells; AMY3-293 / AMY3-HEK)
T1 sequence (P30988 25-474): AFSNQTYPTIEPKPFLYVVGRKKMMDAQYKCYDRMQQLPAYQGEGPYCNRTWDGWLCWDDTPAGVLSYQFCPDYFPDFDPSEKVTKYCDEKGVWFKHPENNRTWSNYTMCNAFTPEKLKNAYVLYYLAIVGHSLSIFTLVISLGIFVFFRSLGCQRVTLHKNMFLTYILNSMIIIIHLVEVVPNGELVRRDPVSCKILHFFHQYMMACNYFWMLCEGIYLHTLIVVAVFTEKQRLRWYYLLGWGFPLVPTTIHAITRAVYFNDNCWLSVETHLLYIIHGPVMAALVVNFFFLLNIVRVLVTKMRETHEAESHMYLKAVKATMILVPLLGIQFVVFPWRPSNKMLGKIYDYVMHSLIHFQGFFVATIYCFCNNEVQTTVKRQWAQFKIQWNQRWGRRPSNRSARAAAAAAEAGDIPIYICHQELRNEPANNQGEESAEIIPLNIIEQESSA
T1 sequence (O60896 24-148 partner): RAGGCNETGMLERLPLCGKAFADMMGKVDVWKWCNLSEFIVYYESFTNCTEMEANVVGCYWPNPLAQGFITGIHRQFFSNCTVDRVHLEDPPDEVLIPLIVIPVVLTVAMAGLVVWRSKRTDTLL
Description: A peptide array library derived from AC253 peptide sequence comprising 14 short peptide sequences namely, R1-R14 (R-R13 are 12 amino acids, peptide R14 is 14 aa), was synthesized in duplicate on a cellulose membrane using SPOT synthesis. Briefly, peptide fragments were designed by selecting the first 12 amino acids from N-terminus, skipping one amino acid and moving towards C-terminus to yield 13 sequences R1-R13, and peptide R14 is the first 14 amino acid of the N-terminus region of AC253. The peptide array was synthesized on a PEG-500-derivatized cellulose membrane with a free amino terminal group using a semiautomatic robot AutoSpot ASP222 (Intavis AG, Germany). Synthesis of peptides on PEG500 derivatised cellulose membrane was started by attaching first β-alanine residue (linker) to the cellulose membrane and subsequently peptides synthesized from the C-terminus. […]
To screen the peptide library for amylin receptor binding affinity, transfected GFP-positive Human Embryonic Kidney 293 cells that express AMY3 receptor (CTR+RAMP3) was used. […] The peptide array membrane was incubated with 20 ml GFP-cells (75,000/ml) in serum free media for 3 hr, and after washing, the net fluorescence intensity of each peptide spot due to bound cells was quantified using a Kodak imager. […] Duplicate peptide spots, two scans, and two different experiments were used to calculate net fluorescence intensity. […]

LGRLSQELHRLQTY (LGRLSQELHRLQTY-NH2) [R14]
reversal of h-Amylin reduction in LTP [1]: significantly reversed | effect of peptide alone on LTP [1]: did not impair LTP | block of Aβ1-42 triggered cell death, SK-N-SH (MTT) [2]: block the effect of Aβ1-42 | binding to HEK293-AMY3 cells on peptide array (fluorescence) [3]: most significant binding

CC(C)C[C@H](NC(=O)[C@H](CCC(=O)O)NC(=O)[C@H](CCC(N)=O)NC(=O)[C@@H](N)CO)C(=O)N[C@@H](Cc1c[nH]cn1)C(=O)N[C@@H](CCCNC(=N)N)C(=O)N[C@@H](CC(C)C)C(=O)N[C@@H](CCC(N)=O)C(=O)N[C@H](C(=O)N[C@@H](Cc1ccc(O)cc1)C(=O)N1CCC[C@H]1C(=O)N[C@@H](CCCNC(=N)N)C(N)=O)[C@@H](C)O [R5] (H-SQELHRLQTYPR-NH2; N-terminus assumed)
reversal of h-Amylin reduction in LTP [1]: significantly reversed | effect of peptide alone on LTP [1]: did not impair LTP | block of Aβ1-42 triggered cell death, SK-N-SH (MTT) [2]: block the effect of Aβ1-42 | binding to HEK293-AMY3 cells on peptide array (fluorescence) [3]: most significant binding
